US12257260B2, “Pharmaceutical use of anemoside B4 against acute gouty arthritis” (priority 2018, dated 2025)

Tests used:
[1] = tested on: rats with acute gouty arthritis induced by MSU; test: Example 1: effect of anemoside B4 on sodium urate (MSU)-induced acute gouty arthritis in rats, joint swelling; format: in vivo, SD rats; design: key to Swelling degree 2 h after modelling / Swelling degree 6 h after modelling / Swelling degree 8 h after modelling / Swelling degree 12 h after modelling / Swelling degree 24 h after modelling: swelling = joint volume after modeling − joint volume before modeling
Procedure: 2.1 Preparation of sodium urate (MSU) crystals and suspension: 5 ml of 1 mol/L NaOH solution and 800 mg sodium urate were added to 155 ml depyrogenated sterile water for injection and heated to boiling. Sodium urate was completely dissolved and then cooled down naturally under stirring. After that, 1 mol/L HCl was dropped to pH 7.0, then the solution became milky white, and was immediately centrifuged at 3000 r/min for 2 min. The crystals were collected, dried in an oven at 60° C., placed in an EP tube, and stored at 4° C. Prior to use, MSU crystals were autoclaved at 121° C. for 30 min, and dispersed in PBS to make the required concentration, i.e. to obtain a suspension of sodium urate (MSU). The film preparation of the suspension was performed, and the long fusiform crystals can be seen under the optical microscope.
2.2 Grouping, administration, and model establishment: 60 rats were randomly divided into 6 groups according to their body weights, 10 rats for each group: (1) model group; (2) colchicine group (0.3 mg/kg); (3) B4 subcutaneous injection group (5 mg/kg*2); (4) B4 intravenous injection group (5 mg/kg*2); (5) B4 intramuscular injection high-dose group (5 mg/kg*2); (6) B4 intramuscular injection low-dose group (2.5 mg/kg*2); normal group (5 rats). The normal group and the model group were injected with the same volume of normal saline, and each of B4 groups was given corresponding drugs by the corresponding route of administration for 3 days, twice a day, with an interval of 4 hours between two times.
Modeling method: on the day of modeling, the model was initially established 1 h after administrating in the drug groups. Among them: • (1) Model group: each rat was injected with 40 mg/mL MSU suspension to the back of the right ankle joint at a dose of 0.2 mL/rat; • (2) Colchicine group: the colchicine group was administered once on the day of modeling, and 1 h after administration, each rat was injected with 40 mg/mL MSU suspension on the dorsal side of the right ankle joint at a dose of 0.2 mL/mouse; • (3)-(6) B4 groups: 1 h after the last administration, each rat was injected with 40 mg/mL MSU suspension on the dorsal side of the right ankle joint at 0.2 mL/mouse, and 3 h after modeling, each test group was further administrated once.
2.3 Measurement of joint swelling: before modeling and 2 h, 4 h, 6 h, 8 h, 12 h, 24 h after modeling, the volume of the right ankle joint was measured, and the swelling degree was calculated by “joint volume after modeling-joint volume before modeling”.

[2] = tested on: rats with acute gouty arthritis induced by MSU; test: Example 2: further investigation at reduced dose, sodium urate (MSU)-induced acute gouty arthritis in rats, joint swelling; format: in vivo, SD rats; design: key to Swelling degree 2 h after modelling / Swelling degree 4 h after modelling / Swelling degree 6 h after modelling: joint volume after modeling minus joint volume before modeling
Excerpt: Based on Example 1, the dosage of anemoside B4 was reduced, and the effect on alleviating the joint swelling of acute gouty arthritis caused by sodium urate in rats was further investigated. • 1. Experimental materials: same as item “1.” in example 1. • 2. Experimental method • 2.1 Preparation of sodium urate (MSU) crystals and suspension: same as item “2.1” in Example 1. • 2.2. Grouping, administration, and model establishment: • 2.2.1 Grouping: 50 rats were randomly divided into 5 groups according to their body weights, 10 rats for each group: • (1) model group; (2) colchicine group (0.15 mg/kg); (3) B4 subcutaneous injection group (2.5 mg/kg*2); (4) B4 intramuscular injection group (2.5 mg/kg*2); (5) B4 intravenous injection group (2.5 mg/kg*2). • 2.2.2 Administration: The model group was injected with the same volume of normal saline, and each test group (including B4 groups and colchicine group) was administered only on the day of model building. Among them, colchicine group was administered once, while each B4 group was successively administered two times with an interval of 4 h. • 2.2.3 Model establishment and measurement of joint swelling: the model was initially established 1 h after administrating in the drug groups, and the method was same as that in example 1. Before modeling and 2 h, 4 h, 6 h, 8 h, and 12 h after modeling, the volume of the right ankle joint was measured, and the swelling degree was calculated by “joint volume after modeling joint volume before modeling”. • 3.

[3] = B4 intramuscular high-dose group, 5 mg/kg * 2
[4] = B4 intramuscular low-dose group, 2.5 mg/kg * 2
[5] = B4 intravenous injection group, 5 mg/kg * 2
[6] = B4 subcutaneous injection group, 5 mg/kg * 2
[7] = B4 intramuscular injection group, 2.5mg/kg * twice
[8] = B4 intravenous injection group, 2.5mg/kg * twice
[9] = B4 subcutaneous injection group, 2.5 mg/kg * twice

## C=C(C)C1CCC2(C(=O)O[C@@H]3O[C@H](CO[C@@H]4O[C@H](CO)[C@@H](O[C@@H]5O[C@@H](C)[C@H](O)[C@@H](O)[C@H]5O)[C@H](O)[C@H]4O)[C@@H](O)[C@H](O)[C@H]3O)CC[C@]3(C)[C@H](CC[C@@H]4[C@@]5(C)CC[C@H](OC6OC[C@H](O)[C@H](O)[C@H]6O[C@@H]6O[C@@H](C)[C@H](O)[C@@H](O)[C@H]6O)[C@@](C)(CO)[C@@H]5CC[C@]43C)[C@@H]12 (stereo partly shown) [B4, anemoside B4]
[1]; [3]
  Swelling degree 2 h after modelling: 0.15 ± 0.10
  Swelling degree 4 h after modelling: 0.15 ± 0.09^Δ
  Swelling degree 6 h after modelling: 0.19 ± 0.11
  Swelling degree 8 h after modelling: 0.28 ± 0.11
  Swelling degree 12 h after modelling: 0.33 ± 0.16
  Swelling degree 24 h after modelling: 0.35 ± 0.23
[1]; B4 intramuscular injection group, 2-4 h after modelling
  swelling degree of the joints compared with the model group: significantly reduced
[1]; [4]
  Swelling degree 2 h after modelling: 0.12 ± 0.07^Δ
  Swelling degree 4 h after modelling: 0.11 ± 0.11^Δ
  Swelling degree 6 h after modelling: 0.20 ± 0.11
  Swelling degree 8 h after modelling: 0.32 ± 0.18
  Swelling degree 12 h after modelling: 0.38 ± 0.23
  Swelling degree 24 h after modelling: 0.55 ± 0.35
[1]; [5]
  Swelling degree 4 h after modelling: 0.08 ± 0.18^Δ
  Swelling degree 6 h after modelling: 0.13 ± 0.14^Δ
  Swelling degree 8 h after modelling: 0.23 ± 0.21
  Swelling degree 12 h after modelling: 0.22 ± 0.19
  Swelling degree 24 h after modelling: 0.28 ± 0.21
[1]; B4 intravenous injection group, 5 mg/kg * 2, 3 days, right ankle joint volume after minus before modelling
  Swelling degree 2 h after modelling: 0.17 ± 0.14
[1]; B4 intravenous injection group, 4-6 h after modelling
  swelling degree of the joints compared with the model group: significantly reduced
[1]; [6]
  Swelling degree 2 h after modelling: 0.10 ± 0.08^Δ
  Swelling degree 4 h after modelling: 0.07 ± 0.08^ΔΔ
  Swelling degree 6 h after modelling: 0.13 ± 0.09^Δ
  Swelling degree 8 h after modelling: 0.21 ± 0.13
  Swelling degree 12 h after modelling: 0.27 ± 0.15
  Swelling degree 24 h after modelling: 0.28 ± 0.16
[1]; B4 subcutaneous injection group, 2-6 h after modelling
  swelling degree of the joints compared with the model group: significantly reduced
[1]; administration routes and dosages of Example 1
  effect on reducing the acute joint swelling caused by sodium urate (MSU) crystals, compared with colchicine: equivalent to that of colchicine
[1]; subcutaneous, intramuscular and intravenous injection
  joint swelling of acute gouty arthritis (conclusion): significantly alleviate
[2]; B4 injection, Example 2
  alleviating the joint swelling of acute gouty arthritis (conclusion): significant effect
[2]; [7]
  Swelling degree 2 h after modelling: 0.099 ± 0.08
  Swelling degree 4 h after modelling: 0.130 ± 0.07
  Swelling degree 6 h after modelling: 0.090 ± 0.07
  Swelling degree 8 h after modelling: 0.134 ± 0.10^Δ
  Swelling degree 12 h after modelling: 0.097 ± 0.17^Δ
[2]; B4 intramuscular injection group, 8-12 h after modelling
  swelling degree of the joint compared with the model group: obviously reduced and significantly different
[2]; B4 intramuscular injection group, 12 h after modeling
  joint swelling degree, rank among groups: smallest in all groups
[2]; [8]
  Swelling degree 2 h after modelling: 0.113 ± 0.09
  Swelling degree 4 h after modelling: 0.099 ± 0.10
  Swelling degree 6 h after modelling: 0.108 ± 0.18
  Swelling degree 8 h after modelling: 0.113 ± 0.24^Δ
  Swelling degree 12 h after modelling: 0.124 ± 0.27^Δ
[2]; B4 intravenous injection group, 8-12 h after modelling
  swelling degree of the joint compared with the model group: obviously reduced and significantly different
[2]; [9]
  Swelling degree 4 h after modelling: 0.008 ± 0.11
  Swelling degree 6 h after modelling: 0.040 ± 0.09^Δ
  Swelling degree 8 h after modelling: 0.103 ± 0.18^Δ
  Swelling degree 12 h after modelling: 0.103 ± 0.16^Δ
[2]; B4 subcutaneous injection group, 2.5 mg/kg * twice, day of modelling only
  Swelling degree 2 h after modelling: 0.067 ± 0.10
[2]; B4 subcutaneous injection group, 2-8 h after modeling
  joint swelling degree, rank among groups: smallest in all groups
[2]; B4 subcutaneous injection group, 6-12 h after modelling
  swelling degree of the joint compared with the model group: obviously reduced and significantly different
[2]; administration routes and dosages of Example 2
  effect on reducing the joint swelling of acute gouty arthritis caused by sodium urate, compared with colchicine: equivalent to that of colchicine

## COc1cc2c(c(OC)c1OC)-c1ccc(OC)c(=O)cc1[C@@H](NC(C)=O)CC2 [Colchicine, colchicine, reference compound]
[1]; Colchicine group, 0.3 mg/kg
  Swelling degree 4 h after modelling: 0.13 ± 0.11^Δ
  Swelling degree 6 h after modelling: 0.19 ± 0.14
  Swelling degree 8 h after modelling: 0.25 ± 0.20
  Swelling degree 12 h after modelling: 0.35 ± 0.23
  Swelling degree 24 h after modelling: 0.33 ± 0.11
[1]; Colchicine group, 0.3 mg/kg, once on the day of modeling
  Swelling degree 2 h after modelling: 0.14 ± 0.08
[1]; colchicine group, 4 h after modelling
  swelling degree of the joints compared with the model group: significantly reduced
[2]; Colchicine group, 0.15 mg/kg
  Swelling degree 4 h after modelling: 0.082 ± 0.11
  Swelling degree 6 h after modelling: 0.056 ± 0.11^Δ
  Swelling degree 8 h after modelling: 0.135 ± 0.13^Δ
  Swelling degree 12 h after modelling: 0.128 ± 0.13^Δ
[2]; Colchicine group, 0.15 mg/kg, once on the day of model building
  Swelling degree 2 h after modelling: 0.155 ± 0.07
[2]; colchicine group, 6-12 h after modelling
  swelling degree of the joint compared with the model group: obviously reduced and significantly different
